Consider 68 sequences from the supplement of paper PMC11208160.

The series is described as follows: recombinant UMI read abundance after kanamycin selection (control-corrected) (log10(CPM+1)); higher = more efficient recombination; extreme values may be limits of the assay; sequences stand for … in AGTGCAGAGAAAATCGGCCAGTTTTCTCTGCCTGCAGTCCGCATGCCGTGGGACCCCTTGGGTTCTAACCTGTTGCCTAGATTTATGCAGCGGACTGCCTTTCTCCCAAAGTGATAAACCGG…AGGTTGGTTTCACT; site = the 11-nt donor. The essentials: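 Two replicates each of selected and unselected plating were used in this pooled Escherichia coli screen of donor and donor-binding-loop pairs for the IS621 bridge recombinase. Selection was with IPTG (0.07 mM) and kanamycin. Counts of recombinant UMIs, amplified across the donor–target junction, were converted to CPM, averaged, scaled by control-derived factors and reported as log10(CPM+1).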
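Note: IS621 bridge recombinase in Escherichia coli cells against a fixed T5 target plasmid.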

As for “GTAGTCACATGGACCGGTTTTCCCGGTAATCCGTATTTGCG (site GTAGTCGCTCG)”, the “recombinant UMI read abundance (log10)” value is 1.67. For the sequence “GTAGTCACATGGACCGGTTTTCCCGGTAATCCGTATTTGCG (site GTAGTCTCTCG)”, the “recombinant UMI read abundance (log10)” value turned out to be 2.62. As for “GTAGTGGCATGGACCGGTTTTCCCGGTAATCCGTATTTGCG (site GTAGTAGCTCG)”, the figure is 2.37; as for “GTAGTGGCATGGACCGGTTTTCCCGGTAATCCGTATTTGCG (site GTAGTCGCTCG)”, 1.25.

As for “GTAGTGGCATGGACCGGTTTTCCCGGTAATCCGTATTTGCG (site GTAGTGGCTCG)”, the “recombinant UMI read abundance (log10)” value was found to be 2.18.

Regarding “GTAGTGGCATGGACCGGTTTTCCCGGTAATCCGTATTTGCG (site GTAGTTGCTCG)”, the “recombinant UMI read abundance (log10)” value was 2.06.

With “GTATACCCATGGACCGGTTTTCCCGGTAATCCGTATTTGTC (site GTATACCCTGA)”, the “recombinant UMI read abundance (log10)” value worked out at 1.03. On to “GTATAGTCATGGACCGGTTTTCCCGGTAATCCGTATTTGGT (site GTATAGTCTAC)”, for which the “recombinant UMI read abundance (log10)” value turned out to be 2.67. As to “GTATCGTCATGGACCGGTTTTCCCGGTAATCCGTATTTGTC (site GTATCGTCTGA)”, the “recombinant UMI read abundance (log10)” value was found to be 3.21. For “GTATGACCATGGACCGGTTTTCCCGGTAATCCGTATTTGGC (site GTATGACCTGC)”, the “recombinant UMI read abundance (log10)” value worked out at 0. As for “GTATGCACATGGACCGGTTTTCCCGGTAATCCGTATTTGAA (site GTATGCACTTA)”, the “recombinant UMI read abundance (log10)” value was 0.217. In the case of “GTATGCACATGGACCGGTTTTCCCGGTAATCCGTATTTGAA (site GTATGCACTTC)” it was 0.0775; in that of “GTATGCACATGGACCGGTTTTCCCGGTAATCCGTATTTGAA (site GTATGCACTTG)”, 0.0145; in that of “GTATGCACATGGACCGGTTTTCCCGGTAATCCGTATTTGAA (site GTATGCACTTT)”, 1.53.

As to “GTATGCGCATGGACCGGTTTTCCCGGTAATCCGTATTTGAA (site GTATGCGCTTT)”, the “recombinant UMI read abundance (log10)” value was determined as 1.66.

Take “GTATGCGCATGGACCGGTTTTCCCGGTAATCCGTATTTGTA (site GTATGCACTTA)”: the “recombinant UMI read abundance (log10)” value stood at 1.8. With “GTATGCGCATGGACCGGTTTTCCCGGTAATCCGTATTTGTA (site GTATGCCCTTA)”, the “recombinant UMI read abundance (log10)” value amounted to 0.772. As to “GTATGCGCATGGACCGGTTTTCCCGGTAATCCGTATTTGTA (site GTATGCGCTTA)”, the “recombinant UMI read abundance (log10)” value was 2.35. For “GTATGCGCATGGACCGGTTTTCCCGGTAATCCGTATTTGTA (site GTATGCTCTTA)”, the “recombinant UMI read abundance (log10)” value stood at 1.33. Turning to “GTATGGACATGGACCGGTTTTCCCGGTAATCCGTATTTGTA (site GTATGAACTTA)”, the “recombinant UMI read abundance (log10)” value turned out to be 2.39. For the sequence “GTATGGACATGGACCGGTTTTCCCGGTAATCCGTATTTGTA (site GTATGCACTTA)”, the “recombinant UMI read abundance (log10)” value was 0.0152. Consider “GTATGGACATGGACCGGTTTTCCCGGTAATCCGTATTTGTA (site GTATGGACTTA)”, for which the “recombinant UMI read abundance (log10)” value was found to be 1.9.

On to “GTATGGACATGGACCGGTTTTCCCGGTAATCCGTATTTGTA (site GTATGTACTTA)”, for which the “recombinant UMI read abundance (log10)” value worked out at 0.44. Regarding “GTCACAACATGGACCGGTTTTCCCGGTAATCCGTATTTGAC (site GTCACAACTGT)”, the “recombinant UMI read abundance (log10)” value came to 1.36. As to “GTCACGACATGGACCGGTTTTCCCGGTAATCCGTATTTGAC (site GTCACGACTGT)”, the “recombinant UMI read abundance (log10)” value was 1.96.

On to “GTCAGAACATGGACCGGTTTTCCCGGTAATCCGTATTTGAT (site GTCAGAACTAT)”, for which the “recombinant UMI read abundance (log10)” value was determined as 2.16. In the case of “GTCAGACCATGGACCGGTTTTCCCGGTAATCCGTATTTGGT (site GTCAGACCTAC)” it was 0.

As for “GTCCAAGCATGGACCGGTTTTCCCGGTAATCCGTATTTGAG (site ATCCAAGCTCT)”, the “recombinant UMI read abundance (log10)” value amounted to 0.677. As for “GTCCAAGCATGGACCGGTTTTCCCGGTAATCCGTATTTGAG (site CTCCAAGCTCT)”, the “recombinant UMI read abundance (log10)” value is 0. Take “GTCCAAGCATGGACCGGTTTTCCCGGTAATCCGTATTTGAG (site GTCCAAGCTCT)”: the “recombinant UMI read abundance (log10)” value was 0.618. As for “GTCCAAGCATGGACCGGTTTTCCCGGTAATCCGTATTTGAG (site TTCCAAGCTCT)”, the figure is 0.088. Turning to “GTCCACCCATGGACCGGTTTTCCCGGTAATCCGTATTTGTT (site GACCACCCTAA)”, the “recombinant UMI read abundance (log10)” value amounted to 0.0143.

For the sequence “GTCCACCCATGGACCGGTTTTCCCGGTAATCCGTATTTGTT (site GCCCACCCTAA)”, the “recombinant UMI read abundance (log10)” value worked out at 0.0129.

As to “GTCCACCCATGGACCGGTTTTCCCGGTAATCCGTATTTGTT (site GGCCACCCTAA)”, the “recombinant UMI read abundance (log10)” value is 0.0212. As for “GTCCACCCATGGACCGGTTTTCCCGGTAATCCGTATTTGTT (site GTCCACCCTAA)”, the “recombinant UMI read abundance (log10)” value worked out at 0.0175. “GTCCATTCATGGACCGGTTTTCCCGGTAATCCGTATTTGCT (site GTCCATTCTAG)”: the “recombinant UMI read abundance (log10)” value is 0.671.

In the case of “GTCCCCGCATGGACCGGTTTTCCCGGTAATCCGTATTTGAG (site GTCCCCGCTCT)”, the “recombinant UMI read abundance (log10)” value turned out to be 0.468. As for “GTCCCGTCATGGACCGGTTTTCCCGGTAATCCGTATTTGGT (site GTCCCGTCTAC)”, the “recombinant UMI read abundance (log10)” value is 0.849.

For “GTCGACCCATGGACCGGTTTTCCCGGTAATCCGTATTTGAG (site GTCGACCCTCT)”, the “recombinant UMI read abundance (log10)” value came to 0.0157.

Regarding “GTCGGTCCATGGACCGGTTTTCCCGGTAATCCGTATTTGTA (site GTCGGTCCTTA)”, the “recombinant UMI read abundance (log10)” value amounted to 0.0236. With “GTCGTTCCATGGACCGGTTTTCCCGGTAATCCGTATTTGGT (site GTAGTTCCTAC)”, the “recombinant UMI read abundance (log10)” value stood at 0. For “GTCGTTCCATGGACCGGTTTTCCCGGTAATCCGTATTTGGT (site GTCGTTCCTAC)”, the “recombinant UMI read abundance (log10)” value came out at 0.0042. Take “GTCGTTCCATGGACCGGTTTTCCCGGTAATCCGTATTTGGT (site GTGGTTCCTAC)”: the “recombinant UMI read abundance (log10)” value amounted to 0.0048. In the case of “GTCGTTCCATGGACCGGTTTTCCCGGTAATCCGTATTTGGT (site GTTGTTCCTAC)”, the “recombinant UMI read abundance (log10)” value is 0.00325. As to “GTCTGACCATGGACCGGTTTTCCCGGTAATCCGTATTTGAG (site CAGGCTGCTTA)”, the “recombinant UMI read abundance (log10)” value was found to be 0.0145.

Take “GTCTGCCCATGGACCGGTTTTCCCGGTAATCCGTATTTGAG (site GTCTGCCCTCT)”: the “recombinant UMI read abundance (log10)” value was 0.0162. With “GTCTTACCATGGACCGGTTTTCCCGGTAATCCGTATTTGCC (site GTCTTACCTGG)”, the “recombinant UMI read abundance (log10)” value was found to be 0.

In the case of “GTCTTGACATGGACCGGTTTTCCCGGTAATCCGTATTTGTG (site GTCTTGACTCA)”, the “recombinant UMI read abundance (log10)” value was determined as 0.296.

For the sequence “GTCTTGTCATGGACCGGTTTTCCCGGTAATCCGTATTTGTC (site GTCTTGTCTGA)”, the “recombinant UMI read abundance (log10)” value amounted to 1.66. “GTGACGCCATGGACCGGTTTTCCCGGTAATCCGTATTTGAA (site GTGACGCCTTT)”: the “recombinant UMI read abundance (log10)” value was determined as 0.0255. Turning to “GTGAGCGCATGGACCGGTTTTCCCGGTAATCCGTATTTGAG (site GTGAGCGCTCT)”, the “recombinant UMI read abundance (log10)” value stood at 1.68. In the case of “GTGCAGGCATGGACCGGTTTTCCCGGTAATCCGTATTTGGT (site GTGCAAGCTAC)”, the “recombinant UMI read abundance (log10)” value was 1.77. Regarding “GTGCAGGCATGGACCGGTTTTCCCGGTAATCCGTATTTGGT (site GTGCACGCTAC)”, the “recombinant UMI read abundance (log10)” value came out at 0.00349. Turning to “GTGCAGGCATGGACCGGTTTTCCCGGTAATCCGTATTTGGT (site GTGCAGGCTAC)”, the “recombinant UMI read abundance (log10)” value turned out to be 0.659. For the sequence “GTGCAGGCATGGACCGGTTTTCCCGGTAATCCGTATTTGGT (site GTGCATGCTAC)”, the “recombinant UMI read abundance (log10)” value turned out to be 0.279. Turning to “GTGCAGGCATGGACCGGTTTTCCCGGTAATCCGTATTTGTG (site GTGAAGGCTCA)”, the “recombinant UMI read abundance (log10)” value turned out to be 1.5. As for “GTGCAGGCATGGACCGGTTTTCCCGGTAATCCGTATTTGTG (site GTGCAGGCTCA)”, the figure is 1.17; as for “GTGCAGGCATGGACCGGTTTTCCCGGTAATCCGTATTTGTG (site GTGGAGGCTCA)”, 0.393. As for “GTGCAGGCATGGACCGGTTTTCCCGGTAATCCGTATTTGTG (site GTGTAGGCTCA)”, the figure is 0.475; as for “GTGCATACATGGACCGGTTTTCCCGGTAATCCGTATTTGGT (site GTGCATACTAC)”, 1.51; as for “GTGCATACATGGACCGGTTTTCCCGGTAATCCGTATTTGGT (site GTGCATCCTAC)”, 0.00833. Turning to “GTGCATACATGGACCGGTTTTCCCGGTAATCCGTATTTGGT (site GTGCATGCTAC)”, the “recombinant UMI read abundance (log10)” value worked out at 0.555. For the sequence “GTGCATACATGGACCGGTTTTCCCGGTAATCCGTATTTGGT (site GTGCATTCTAC)”, the “recombinant UMI read abundance (log10)” value amounted to 0.00888.

Turning to “GTGCATGCATGGACCGGTTTTCCCGGTAATCCGTATTTGCT (site GTGCATGCTAA)”, the “recombinant UMI read abundance (log10)” value is 0.00274. As to “GTGCATGCATGGACCGGTTTTCCCGGTAATCCGTATTTGCT (site GTGCATGCTAC)”, the “recombinant UMI read abundance (log10)” value stood at 0. On to “GTGCATGCATGGACCGGTTTTCCCGGTAATCCGTATTTGCT (site GTGCATGCTAG)”, for which the “recombinant UMI read abundance (log10)” value stood at 2.86. For “GTGCATGCATGGACCGGTTTTCCCGGTAATCCGTATTTGCT (site GTGCATGCTAT)”, the “recombinant UMI read abundance (log10)” value turned out to be 0.999. On to “GTGCCGACATGGACCGGTTTTCCCGGTAATCCGTATTTGAC (site GTGCCGACTGT)”, for which the “recombinant UMI read abundance (log10)” value came to 2.4.
